From ChEMBL document CHEMBL1201862, “PubChem BioAssay data set” (2004)
Values belong to the compound of their own block, whether it stands above or below them. Calls of active or inactive are those of the source. Unless noted, the calls are words filed in the database; no cut-off is given here.

Tests used:
[1] = target: Sphingosine 1-phosphate receptor 1 (Homo sapiens, UniProt P21453); experiment: Late-stage fluorescence-based dose-response cell-based counterscreen assay to identify agonists of the Sphingosine 1-Phosphate Receptor 4 (S1P4): Sphingosine 1-Phosphate Receptor 1 (S1P1) agonist assay Set 2.; type: functional
Sequence of Sphingosine 1-phosphate receptor 1 (P21453 whole entry): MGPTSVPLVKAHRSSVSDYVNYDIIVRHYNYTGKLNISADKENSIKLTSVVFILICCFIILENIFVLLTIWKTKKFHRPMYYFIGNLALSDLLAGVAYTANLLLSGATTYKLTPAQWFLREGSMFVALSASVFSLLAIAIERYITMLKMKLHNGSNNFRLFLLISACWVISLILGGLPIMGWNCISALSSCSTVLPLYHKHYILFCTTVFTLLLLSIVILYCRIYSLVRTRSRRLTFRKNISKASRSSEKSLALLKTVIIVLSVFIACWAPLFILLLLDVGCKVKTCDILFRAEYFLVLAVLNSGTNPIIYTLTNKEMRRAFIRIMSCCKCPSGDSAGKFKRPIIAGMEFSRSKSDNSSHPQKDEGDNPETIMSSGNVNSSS

[2] = target: Sphingosine 1-phosphate receptor 5 (Homo sapiens, UniProt Q9H228); experiment: activation of human S1P5 receptor – cell-based, fluorescence, set 2, counter-screen for S1P4 agonist project, late-stage follow-up (AID 504867); type: functional
Sequence of Sphingosine 1-phosphate receptor 5 (Q9H228 whole entry): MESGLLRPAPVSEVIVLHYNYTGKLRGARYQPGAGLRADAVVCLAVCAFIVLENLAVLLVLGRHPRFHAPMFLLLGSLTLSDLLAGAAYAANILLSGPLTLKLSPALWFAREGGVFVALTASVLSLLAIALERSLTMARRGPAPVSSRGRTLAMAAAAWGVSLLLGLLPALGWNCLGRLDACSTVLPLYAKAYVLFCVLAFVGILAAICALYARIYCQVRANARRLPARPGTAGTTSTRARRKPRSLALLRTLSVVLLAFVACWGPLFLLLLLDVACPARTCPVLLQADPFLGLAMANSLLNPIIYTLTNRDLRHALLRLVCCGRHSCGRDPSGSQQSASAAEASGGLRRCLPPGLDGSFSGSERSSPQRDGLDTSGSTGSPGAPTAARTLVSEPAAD

[3] = target: Sphingosine 1-phosphate receptor 3 (Homo sapiens, UniProt Q99500); experiment: Late-stage fluorescence-based dose-response cell-based counterscreen assay to identify agonists of the Sphingosine 1-Phosphate Receptor 4 (S1P4): Sphingosine 1-Phosphate Receptor 3 (S1P3) agonist assay Set 2.; type: functional
Sequence of Sphingosine 1-phosphate receptor 3 (Q99500 whole entry): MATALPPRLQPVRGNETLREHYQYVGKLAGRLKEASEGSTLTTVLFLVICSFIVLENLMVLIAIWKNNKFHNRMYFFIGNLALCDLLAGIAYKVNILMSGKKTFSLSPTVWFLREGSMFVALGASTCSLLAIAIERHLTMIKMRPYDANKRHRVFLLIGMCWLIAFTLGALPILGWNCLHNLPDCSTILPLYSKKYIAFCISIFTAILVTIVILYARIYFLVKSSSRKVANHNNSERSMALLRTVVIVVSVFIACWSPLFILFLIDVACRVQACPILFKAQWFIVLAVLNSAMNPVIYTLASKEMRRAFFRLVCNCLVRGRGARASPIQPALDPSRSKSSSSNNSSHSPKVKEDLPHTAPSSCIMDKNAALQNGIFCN

[4] = target: Sphingosine 1-phosphate receptor 2 (Homo sapiens, UniProt O95136); experiment: activation of human S1P2 receptor – cell-based, fluorescence, set 2, counter-screen for S1P4 agonist project, late-stage follow-up (AID 504873); type: functional
Sequence of Sphingosine 1-phosphate receptor 2 (O95136 whole entry): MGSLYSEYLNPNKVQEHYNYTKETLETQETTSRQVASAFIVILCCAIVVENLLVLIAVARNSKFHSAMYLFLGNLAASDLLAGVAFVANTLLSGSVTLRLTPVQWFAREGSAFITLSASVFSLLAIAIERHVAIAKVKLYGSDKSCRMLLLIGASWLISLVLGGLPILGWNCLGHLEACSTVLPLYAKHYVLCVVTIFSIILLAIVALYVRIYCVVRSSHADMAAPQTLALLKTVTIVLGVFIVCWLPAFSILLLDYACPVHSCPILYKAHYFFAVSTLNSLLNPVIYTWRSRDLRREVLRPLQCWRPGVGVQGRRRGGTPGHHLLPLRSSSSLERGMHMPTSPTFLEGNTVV

[5] = target: T1, Acyl-homoserine lactone acylase PvdQ (Pseudomonas aeruginosa (strain LESB58), UniProt Q9I194); experiment: PvdQ acylase enzyme activity blockers – biochemical, fluorescence, plate reader and imaging, cherry-picks, dose response (AID 493231)
T1 sequence (Q9I194 whole entry): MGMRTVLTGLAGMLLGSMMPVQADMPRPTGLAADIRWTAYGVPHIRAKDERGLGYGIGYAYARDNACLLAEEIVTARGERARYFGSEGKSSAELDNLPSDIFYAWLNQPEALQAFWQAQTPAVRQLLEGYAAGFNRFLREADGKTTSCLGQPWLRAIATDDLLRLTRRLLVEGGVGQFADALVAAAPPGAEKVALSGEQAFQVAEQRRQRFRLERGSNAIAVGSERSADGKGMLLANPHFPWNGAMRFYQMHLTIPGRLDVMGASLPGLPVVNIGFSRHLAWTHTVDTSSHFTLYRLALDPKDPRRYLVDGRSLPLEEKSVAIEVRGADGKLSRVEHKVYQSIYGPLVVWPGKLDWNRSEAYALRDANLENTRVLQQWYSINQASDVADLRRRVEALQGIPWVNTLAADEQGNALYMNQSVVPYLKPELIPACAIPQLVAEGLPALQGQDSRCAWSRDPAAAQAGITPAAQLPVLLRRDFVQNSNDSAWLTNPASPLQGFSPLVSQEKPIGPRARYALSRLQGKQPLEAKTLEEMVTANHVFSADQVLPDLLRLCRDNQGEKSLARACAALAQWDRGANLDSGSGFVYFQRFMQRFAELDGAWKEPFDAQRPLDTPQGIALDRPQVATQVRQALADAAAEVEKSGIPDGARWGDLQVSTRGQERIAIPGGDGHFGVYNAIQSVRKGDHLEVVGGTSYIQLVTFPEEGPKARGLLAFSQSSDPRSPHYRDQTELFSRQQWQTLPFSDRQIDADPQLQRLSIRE

HEK293 = experiment: EBV LMP1 TES2 canonical NF-kB signalling blockers – cell-based, HEK293, luciferase, cherry-pick, dose response (AID 588343); type: functional; conditions: Homo sapiens
[6] = target: Latent membrane protein 1 (Human herpesvirus 4 (strain B95-8), UniProt P03230); experiment: LMP1 TES1 pathway selectivity over dsRED control – imaging, HEK293T, dual-color eGFP/dsRED, cherry-picks, selectivity assay for LMP1 NF-kB inhibitor project, dose response (AID 588398); type: functional, cell-based
Sequence of Latent membrane protein 1 (P03230 whole entry): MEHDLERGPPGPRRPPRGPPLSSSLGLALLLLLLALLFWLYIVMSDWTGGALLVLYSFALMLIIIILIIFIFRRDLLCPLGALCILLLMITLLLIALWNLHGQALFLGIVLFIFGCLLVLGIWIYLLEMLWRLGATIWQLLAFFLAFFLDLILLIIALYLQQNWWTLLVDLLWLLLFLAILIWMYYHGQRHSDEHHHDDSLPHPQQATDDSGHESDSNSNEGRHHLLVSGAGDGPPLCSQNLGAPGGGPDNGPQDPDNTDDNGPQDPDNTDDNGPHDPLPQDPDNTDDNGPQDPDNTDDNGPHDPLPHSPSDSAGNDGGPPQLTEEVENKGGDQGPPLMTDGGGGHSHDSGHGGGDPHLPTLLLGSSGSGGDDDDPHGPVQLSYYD

[7] = target: DNA dC->dU-editing enzyme APOBEC-3G (Homo sapiens, UniProt Q9HC16); experiment: inhibition of APOBEC3G ssDNA deamination – biochemical, fluorescence, single-stranded DNA substrate, SAR follow-up (AID 602136); type: functional; conditions: read-out: IC50_Mean
Sequence of DNA dC->dU-editing enzyme APOBEC-3G (Q9HC16 whole entry): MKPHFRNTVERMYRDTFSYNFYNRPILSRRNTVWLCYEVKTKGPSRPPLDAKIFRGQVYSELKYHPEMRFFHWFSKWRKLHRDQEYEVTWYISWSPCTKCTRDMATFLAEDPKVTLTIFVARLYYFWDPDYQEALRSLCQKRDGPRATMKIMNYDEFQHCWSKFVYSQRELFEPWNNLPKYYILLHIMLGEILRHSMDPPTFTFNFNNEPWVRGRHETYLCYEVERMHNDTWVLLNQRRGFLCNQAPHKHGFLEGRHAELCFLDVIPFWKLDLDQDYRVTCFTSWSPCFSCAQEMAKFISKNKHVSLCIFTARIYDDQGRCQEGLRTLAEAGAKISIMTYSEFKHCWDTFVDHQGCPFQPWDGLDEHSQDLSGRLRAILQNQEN

[8] = target: DNA dC->dU-editing enzyme APOBEC-3A (Homo sapiens, UniProt P31941); experiment: SAR analysis of small molecule inhibitors of APOBEC3A DNA Deaminase via a fluorescence-based single-stranded DNA deaminase assay.; type: functional; conditions: read-out: IC50_Mean
Sequence of DNA dC->dU-editing enzyme APOBEC-3A (P31941 whole entry): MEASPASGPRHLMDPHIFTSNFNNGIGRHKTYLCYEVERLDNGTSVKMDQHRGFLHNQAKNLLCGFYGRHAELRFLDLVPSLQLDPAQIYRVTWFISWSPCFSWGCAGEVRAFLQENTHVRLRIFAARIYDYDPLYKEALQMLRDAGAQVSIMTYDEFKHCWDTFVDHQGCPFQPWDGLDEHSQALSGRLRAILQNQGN

EC50 [1]: 0.0683 µM (active) | EC50 [2]: 0.237 µM (active) | EC50 [3]: > 25 µM (inactive) | EC50 [4]: > 25 µM (inactive)
Structure (SMILES): CC/N=C1/S/C(=C\c2cc(C)n(-c3ccccc3)c2C)C(=O)N1CC

Structure (SMILES): Cc1cc(NC(=O)c2ccc3c(c2)OCCO3)no1
AC50 [5]: 49.6 µM (active) | AC50 (HEK293): 4.15 µM (active) | AC50 [6]: 32.7 µM (active)

Structure (SMILES): CCc1nnc(NC(=O)Cc2c(F)cccc2Cl)s1
IC50 [7]: > 99 µM (inactive) | IC50 [8]: > 99 µM (inactive)
